Legend:
wild oat [1] = assay: Test Example 4: herbicidal effect by soil treatment (Table 19, symbol I); assay type: in vivo, wild oat (Avena fatua); details: amount of applied herbicide 320 g/ha
Procedure, shortened: (§1)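 Applied as a water-diluted emulsion, the compound was sprayed onto soil covering newly sown seeds. Evaluation came three weeks after application, in a greenhouse held at 25° C. to 30° C.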

barnyard grass [2] = assay: Test Example 3: herbicidal effect by foliage application, Wagner pot (Table 18, symbol H); assay type: in vivo, barnyard grass (Echinochloa crus-galli); details: 344 g/ha
Procedure, shortened: (§2)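 Plants were sown in alluvial soil held under 0.1–0.5 cm standing water and grown 14 days in a greenhouse at 25–30 °C. An emulsifiable formulation, water-diluted to the set dose, was then sprayed onto the foliage, and effects were scored three weeks later using previously defined criteria.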

chickweed [3] = assay: Test Example 4: herbicidal effect by soil treatment (Table 19, symbol P); assay type: in vivo, common chickweed (Stellaria media); details: amount of applied herbicide 320 g/ha
Procedure, shortened: as §1

windgrass [4] = assay: Test Example 4: herbicidal effect by soil treatment (Table 19, symbol L); assay type: in vivo, windgrass (Apera spica-venti); details: amount of applied herbicide 320 g/ha
Procedure, shortened: as §1

rice flat sedge = assay: Test Example 3: herbicidal effect by foliage application, Wagner pot (Table 18, symbol E); assay type: in vivo, rice flat sedge (Cyperus iria); details: 344 g/ha
Procedure, shortened: as §2

barnyard grass [5] = assay: Test Example 4: herbicidal effect by soil treatment (Table 19, symbol H); assay type: in vivo, barnyard grass (Echinochloa crus-galli); details: amount of applied herbicide 320 g/ha
Procedure, shortened: as §1

green foxtail [6] = assay: Test Example 5: herbicidal effect by foliage application, plastic box (Table 20, symbol G); assay type: in vivo, green foxtail (Setaria viridis); details: amount of applied herbicide 320 g/ha; foliage application after 14-day growth; evaluated three weeks after application
Procedure, shortened: (§3)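 Sow seeds spot-wise in sterilized diluvial soil; cover with ~1.5 cm soil. Grow 14 days in greenhouse, 25° C. to 30° C. Spray foliage with emulsion diluted to predetermined amount. Rate effect after 3 weeks.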

late watergrass = assay: Test Example 1: herbicidal activity, application before weed generation under submerged conditions (Table 16, symbol A); assay type: in vivo, late watergrass (Echinochloa oryzicola); details: amount of applied herbicide 320 g/ha
Procedure, shortened: (§4)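 Submerged Wagner pots (alluvial soil, 4 cm water) sown with weed seeds and planted with 2.5-leaf rice seedlings; emulsifiable concentrate diluted in water applied to water surface on sowing day. Held in greenhouse at 25-30 °C; injury scored 0-5 by herbicidal rate after three weeks.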

redroot pigweed [7] = assay: Test Example 4: herbicidal effect by soil treatment (Table 19, symbol N); assay type: in vivo, redroot pigweed (Amaranthus retroflexus); details: amount of applied herbicide 320 g/ha
Procedure, shortened: as §1

chickweed [8] = assay: Test Example 5: herbicidal effect by foliage application, plastic box (Table 20, symbol P); assay type: in vivo, common chickweed (Stellaria media); details: amount of applied herbicide 320 g/ha; foliage application after 14-day growth; evaluated three weeks after application
Procedure, shortened: as §3

oval-leafed pondweed = assay: Test Example 1: herbicidal activity, application before weed generation under submerged conditions (Table 16, symbol C); assay type: in vivo, oval-leafed pondweed (Monochoria vaginalis); details: amount of applied herbicide 320 g/ha
Procedure, shortened: as §4

barnyard grass [9] = assay: Test Example 5: herbicidal effect by foliage application, plastic box (Table 20, symbol H); assay type: in vivo, barnyard grass (Echinochloa crus-galli); details: amount of applied herbicide 320 g/ha; foliage application after 14-day growth; evaluated three weeks after application
Procedure, shortened: as §3

windgrass [10] = assay: Test Example 5: herbicidal effect by foliage application, plastic box (Table 20, symbol L); assay type: in vivo, windgrass (Apera spica-venti); details: amount of applied herbicide 320 g/ha; foliage application after 14-day growth; evaluated three weeks after application
Procedure, shortened: as §3

Japanese bulrush = assay: Test Example 1: herbicidal activity, application before weed generation under submerged conditions (Table 16, symbol B); assay type: in vivo, Japanese bulrush (Schoenoplectus juncoides); details: amount of applied herbicide 320 g/ha
Procedure, shortened: as §4

southern crabgrass [11] = assay: Test Example 5: herbicidal effect by foliage application, plastic box (Table 20, symbol F); assay type: in vivo, southern crabgrass (Digitaria ciliaris); details: amount of applied herbicide 320 g/ha; foliage application after 14-day growth; evaluated three weeks after application
Procedure, shortened: as §3

Italian ryegrass [12] = assay: Test Example 5: herbicidal effect by foliage application, plastic box (Table 20, symbol K); assay type: in vivo, Italian ryegrass (Lolium multiflorum); details: amount of applied herbicide 320 g/ha; foliage application after 14-day growth; evaluated three weeks after application
Procedure, shortened: as §3

green foxtail [13] = assay: Test Example 4: herbicidal effect by soil treatment (Table 19, symbol G); assay type: in vivo, green foxtail (Setaria viridis); details: amount of applied herbicide 320 g/ha
Procedure, shortened: as §1

Italian ryegrass [14] = assay: Test Example 4: herbicidal effect by soil treatment (Table 19, symbol K); assay type: in vivo, Italian ryegrass (Lolium multiflorum); details: amount of applied herbicide 320 g/ha
Procedure, shortened: as §1

velvetleaf [15] = assay: Test Example 5: herbicidal effect by foliage application, plastic box (Table 20, symbol M); assay type: in vivo, velvetleaf (Abutilon theophrasti); details: amount of applied herbicide 320 g/ha; foliage application after 14-day growth; evaluated three weeks after application
Procedure, shortened: as §3

redroot pigweed [16] = assay: Test Example 5: herbicidal effect by foliage application, plastic box (Table 20, symbol N); assay type: in vivo, redroot pigweed (Amaranthus retroflexus); details: amount of applied herbicide 320 g/ha; foliage application after 14-day growth; evaluated three weeks after application
Procedure, shortened: as §3

persian speedwell [17] = assay: Test Example 4: herbicidal effect by soil treatment (Table 19, symbol R); assay type: in vivo, Persian speedwell (Veronica persica); details: amount of applied herbicide 320 g/ha
Procedure, shortened: as §1

lambsquarters [18] = assay: Test Example 4: herbicidal effect by soil treatment (Table 19, symbol O); assay type: in vivo, lambsquarters (Chenopodium album); details: amount of applied herbicide 320 g/ha
Procedure, shortened: as §1

Chinese sprangletop = assay: Test Example 3: herbicidal effect by foliage application, Wagner pot (Table 18, symbol D); assay type: in vivo, chinese sprangletop (Leptochloa chinensis); details: 344 g/ha
Procedure, shortened: as §2

southern crabgrass [19] = assay: Test Example 4: herbicidal effect by soil treatment (Table 19, symbol F); assay type: in vivo, southern crabgrass (Digitaria ciliaris); details: amount of applied herbicide 320 g/ha
Procedure, shortened: as §1

lambsquarters [20] = assay: Test Example 5: herbicidal effect by foliage application, plastic box (Table 20, symbol O); assay type: in vivo, lambsquarters (Chenopodium album); details: amount of applied herbicide 320 g/ha; foliage application after 14-day growth; evaluated three weeks after application
Procedure, shortened: as §3

blackgrass [21] = assay: Test Example 5: herbicidal effect by foliage application, plastic box (Table 20, symbol J); assay type: in vivo, blackgrass (Alopecurus myosuroides); details: amount of applied herbicide 320 g/ha; foliage application after 14-day growth; evaluated three weeks after application
Procedure, shortened: as §3

blackgrass [22] = assay: Test Example 4: herbicidal effect by soil treatment (Table 19, symbol J); assay type: in vivo, blackgrass (Alopecurus myosuroides); details: amount of applied herbicide 320 g/ha
Procedure, shortened: as §1

persian speedwell [23] = assay: Test Example 5: herbicidal effect by foliage application, plastic box (Table 20, symbol R); assay type: in vivo, Persian speedwell (Veronica persica); details: amount of applied herbicide 320 g/ha; foliage application after 14-day growth; evaluated three weeks after application
Procedure, shortened: as §3

velvetleaf [24] = assay: Test Example 4: herbicidal effect by soil treatment (Table 19, symbol M); assay type: in vivo, velvetleaf (Abutilon theophrasti); details: amount of applied herbicide 320 g/ha
Procedure, shortened: as §1

wild oat [25] = assay: Test Example 5: herbicidal effect by foliage application, plastic box (Table 20, symbol I); assay type: in vivo, wild oat (Avena fatua); details: amount of applied herbicide 320 g/ha; foliage application after 14-day growth; evaluated three weeks after application
Procedure, shortened: as §3

For `CCCC(=O)Oc1c(C)nn(C)c(=O)c1-c1c(-c2ccc(C(=O)OC)cc2)sc2cc(F)c(F)cc12` [5-028], the “I: wild oat, herbicidal effect grade” value (wild oat [1]) was 0 (Herbicidal rate of 5% or less (almost no effect)), the “herbicidal effect on barnyard grass (H)” value (barnyard grass [2]) was 5 (Herbicidal rate of 90% or more (almost completely withered)) and the “P: chickweed, herbicidal effect grade” value (chickweed [3]) was 1 (Herbicidal rate of 5% or more and less than 20%). For the same compound, the “L: windgrass, herbicidal effect grade” value (windgrass [4]) was 0 (Herbicidal rate of 5% or less (almost no effect)), the “herbicidal effect on rice flat sedge (E)” value (rice flat sedge) was 0 (Herbicidal rate of 5% or less (almost no effect)) and the “H: barnyard grass, herbicidal effect grade” value (barnyard grass [5]) was 0 (Herbicidal rate of 5% or less (almost no effect)). For the same compound, the “Herbicidal effect by foliage application, G: green foxtail” value (green foxtail [6]) was 0 (Herbicidal rate of 5% or less (almost no effect)), the “Herbicidal effect, A: late watergrass” value (late watergrass) was 0 (Herbicidal rate of 5% or less (almost no effect)) and the “N: redroot pigweed, herbicidal effect grade” value (redroot pigweed [7]) was 3 (Herbicidal rate of 40% or more and less than 70%). The “Herbicidal effect by foliage application, P: chickweed” value (chickweed [8]) was 5 (Herbicidal rate of 90% or more (almost completely withered)), the “Herbicidal effect, C: oval-leafed pondweed” value (oval-leafed pondweed) was 2 (Herbicidal rate of 20% or more and less than 40%) and the “Herbicidal effect by foliage application, H: barnyard grass” value (barnyard grass [9]) was 0 (Herbicidal rate of 5% or less (almost no effect)). The “Herbicidal effect by foliage application, L: windgrass” value (windgrass [10]) was 0 (Herbicidal rate of 5% or less (almost no effect)), the “Herbicidal effect, B: Japanese bulrush” value (Japanese bulrush) was 2 (Herbicidal rate of 20% or more and less than 40%) and the “Herbicidal effect by foliage application, F: southern crabgrass” value (southern crabgrass [11]) was 0 (Herbicidal rate of 5% or less (almost no effect)). The “Herbicidal effect by foliage application, K: Italian ryegrass” value (Italian ryegrass [12]) was 0 (Herbicidal rate of 5% or less (almost no effect)), the “G: green foxtail, herbicidal effect grade” value (green foxtail [13]) was 0 (Herbicidal rate of 5% or less (almost no effect)) and the “K: Italian ryegrass, herbicidal effect grade” value (Italian ryegrass [14]) was 0 (Herbicidal rate of 5% or less (almost no effect)). For the same compound, the “Herbicidal effect by foliage application, M: velvetleaf” value (velvetleaf [15]) was 3 (Herbicidal rate of 40% or more and less than 70%), the “Herbicidal effect by foliage application, N: redroot pigweed” value (redroot pigweed [16]) was 3 (Herbicidal rate of 40% or more and less than 70%) and the “R: persian speedwell, herbicidal effect grade” value (persian speedwell [17]) was 1 (Herbicidal rate of 5% or more and less than 20%). For the same compound, the “O: lambsquarters, herbicidal effect grade” value (lambsquarters [18]) was 2 (Herbicidal rate of 20% or more and less than 40%), the “herbicidal effect on Chinese sprangletop (D)” value (Chinese sprangletop) was 0 (Herbicidal rate of 5% or less (almost no effect)) and the “F: southern crabgrass, herbicidal effect grade” value (southern crabgrass [19]) was 0 (Herbicidal rate of 5% or less (almost no effect)). The “Herbicidal effect by foliage application, O: lambsquarters” value (lambsquarters [20]) was 3 (Herbicidal rate of 40% or more and less than 70%), the “Herbicidal effect by foliage application, J: blackgrass” value (blackgrass [21]) was 0 (Herbicidal rate of 5% or less (almost no effect)) and the “J: blackgrass, herbicidal effect grade” value (blackgrass [22]) was 0 (Herbicidal rate of 5% or less (almost no effect)). For the same compound, the “Herbicidal effect by foliage application, R: persian speedwell” value (persian speedwell [23]) was 4 (Herbicidal rate of 70% or more and less than 90%), the “M: velvetleaf, herbicidal effect grade” value (velvetleaf [24]) was 0 (Herbicidal rate of 5% or less (almost no effect)) and the “Herbicidal effect by foliage application, I: wild oat” value (wild oat [25]) was 0 (Herbicidal rate of 5% or less (almost no effect)).
